Positions of bridges follow the written chain, without caps; N, C: chain ends. Non-standard residues stand in square brackets, D forms with d. Residues, ends and D or L forms follow the SMILES beside them. *: point of attachment. Phe(4-CF3) = N[C@@H](Cc1ccc(C(F)(F)F)cc1)C(=O)O; NMeF = CN[C@@H](Cc1ccccc1)C(=O)O; NMeI = CC[C@H](C)[C@H](NC)C(=O)O; NMeL = CN[C@@H](CC(C)C)C(=O)O; NMeV = CN[C@H](C(=O)O)C(C)C; Pip = O=C(O)[C@@H]1CCCCN1; NMeA = CN[C@@H](C)C(=O)O; Piperidide = C1CCN(*)CC1; NEtG = CCNCC(=O)O; Sar = CNCC(=O)O; tBu = CC(C)(C)*
Assay: Caco-2 membrane permeability, improved method as used in the following Examples (96-well, 20 to 24 h preincubation)
Format: in vitro ADME
Settings: human, Caco-2, Caco-2 (cm/sec)
Method in brief: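 Papp (cm/sec) was derived from LC/MS of basal samples collected 180 min after apical dosing in FaSSIF/HBSS pH 6.0 with 1% DMSO, against a basal HBSS pH 7.4 receiver containing 4% BSA. Three-week Caco-2 cultures were first preincubated with compound in DMEM+FaSSIF at 37 °C for 20–24 h.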

Row | SMILES | Papp A→B at 180 min [×10⁻⁶ cm/s]
1 | CC(C)C[C@H]1C(=O)N[C@H](C(=O)N2CCCCC2)CC(=O)N[C@H](C)C(=O)N(C)[C@@H](CC(C)C)C(=O)N[C@@H](COC(C)(C)C)C(=O)N(C)[C@@H](CC(C)C)C(=O)N2CCCC[C@H]2C(=O)N(C)[C@@H](C)C(=O)N[C@@H]([C@@H](C)O)C(=O)N(C)[C@@H](Cc2ccccc2)C(=O)N[C@@H](Cc2ccc(C(F)(F)F)cc2)C(=O)N1C [pd137] ([dA][NMeL]S(tBu)[NMeL][Pip][NMeA]T[NMeF][Phe(4-CF3)][NMeL]D-Piperidide; lactam N-11) | 2.2
2 | CC(C)C[C@H]1C(=O)N[C@@H](COC(C)(C)C)C(=O)N(C)[C@@H](Cc2ccccc2)C(=O)N(C)[C@@H](C)C(=O)N[C@H](C(=O)N2CCCCC2)CC(=O)N[C@H](C(C)C)C(=O)N(C)[C@@H](CC(C)C)C(=O)N[C@@H](Cc2ccc(C(F)(F)F)cc2)C(=O)N(C)[C@@H](CC(C)C)C(=O)N[C@@H]([C@@H](C)O)C(=O)N(C)CC(=O)N1C [pd138] ([dV][NMeL][Phe(4-CF3)][NMeL]T[Sar][NMeL]S(tBu)[NMeF][NMeA]D-Piperidide; lactam N-11) | 2.6
3 | CC(C)C[C@H]1C(=O)N(C)[C@@H](CC(C)C)C(=O)N[C@@H](COC(C)(C)C)C(=O)N(C)[C@@H](C(C)C)C(=O)N[C@H](C(=O)N2CCCCC2)CC(=O)N(C)CC(=O)N(C)[C@@H](Cc2ccccc2)C(=O)N[C@@H](Cc2ccc(C(F)(F)F)cc2)C(=O)N(C)[C@@H](CC(C)C)C(=O)N[C@@H]([C@@H](C)O)C(=O)N(C)CC(=O)N1C [pd140] ([Sar][NMeF][Phe(4-CF3)][NMeL]T[Sar][NMeL][NMeL]S(tBu)[NMeV]D-Piperidide; lactam N-11) | 2.5
4 | CC(C)C[C@H]1C(=O)N[C@H](C(=O)N2CCCCC2)CC(=O)N[C@H](C)C(=O)N(C)[C@@H](CC(C)C)C(=O)N2CCCC[C@H]2C(=O)N(C)[C@@H](CC(C)C)C(=O)N2CCCC[C@H]2C(=O)N(C)[C@@H](C)C(=O)N[C@@H]([C@@H](C)O)C(=O)N(C)[C@@H](Cc2ccccc2)C(=O)N[C@@H](Cc2ccc(C(F)(F)F)cc2)C(=O)N1C [pd141] ([dA][NMeL][Pip][NMeL][Pip][NMeA]T[NMeF][Phe(4-CF3)][NMeL]D-Piperidide; lactam N-11) | 2.1
5 | CC[C@H](C)[C@H]1C(=O)N[C@@H]([C@@H](C)O)C(=O)N(C)CC(=O)N(C)[C@@H](CC(C)C)C(=O)N[C@H](C(=O)N2CCCCC2)CC(=O)N(C)[C@@H](C)C(=O)N[C@@H](CC(C)C)C(=O)N(C)[C@@H](CC(C)C)C(=O)N(C)[C@@H](CC(C)C)C(=O)N[C@@H](Cc2ccc(C(F)(F)F)cc2)C(=O)N(C)[C@@H](C)C(=O)N1C [pd142] ([NMeA]L[NMeL][NMeL][Phe(4-CF3)][NMeA][NMeI]T[Sar][NMeL]D-Piperidide; lactam N-11) | 2.9
6 | CCN1CC(=O)N[C@@H]([C@@H](C)O)C(=O)N(C)[C@@H](CC(C)C)C(=O)N(C)[C@@H](CC(C)C)C(=O)N[C@@H](Cc2ccc(C(F)(F)F)cc2)C(=O)N[C@H](C(=O)N2CCCCC2)CC(=O)N[C@@H](COC(C)(C)C)C(=O)N(C)[C@@H](CC(C)C)C1=O [pd143] (S(tBu)[NMeL][NEtG]T[NMeL][NMeL][Phe(4-CF3)]D-Piperidide; lactam N-8) | 1.1
7 | CC[C@H](C)[C@@H]1NC(=O)[C@H](CC(C)C)NC(=O)[C@H](CC(C)C)N(C)C(=O)[C@H](C)NC(=O)C[C@@H](C(=O)N2CCCCC2)NC(=O)[C@H](CC(C)C)N(C)C(=O)[C@H]([C@@H](C)O)NC(=O)[C@H](Cc2ccc(C(F)(F)F)cc2)NC(=O)[C@H](CC(C)C)N(C)C1=O [pd144] (A[NMeL]LI[NMeL][Phe(4-CF3)]T[NMeL]D-Piperidide; lactam N-9) | 2.1
